The source of these data is patent US7253158B2, “Sulfonamides” (Hoffmann-La Roche Inc., priority 2004, dated 2007).

As a reminder, the IC50 is the concentration needed to halve the response being measured.

This assay concerns the target T1, γ-secretase (Homo sapiens, UniProt P49768).
T1 construct: uses a HEK293 membrane fraction as a source of γ-secretase; endogenous in cells; host or cells: HEK293 (microsomal membrane fraction, solubilised in 0.25% CHAPSO)
In words: in vitro γ-secretase assay (HEK293 membrane fraction, recombinant APP substrate, Abeta ELISA). The class given is biochemical. As to conditions: γ-secretase inhibition. From the text:
Description of γ-Secretase Assay
The activity of test compounds can be evaluated in assays which measure the proteolytic cleavage of suitable substrates by γ-secretase activity. These can be cellular assays where e.g., a substrate of the γ-secretase is fused in its cytoplasmic domain to a transcription factor. Cells are transfected with this fusion gene and a reporter gene, e.g., firefly luciferase, which expression is enhanced by the transcription factor. Cleavage of the fused substrate by γ-secretase will lead to expression of the reporter gene which can be monitored in appropriate assays. The γ-secretase activity can also be determined in cell-free in vitro asays where e.g., a cell lysate containing the γ-secretase complex is incubated with a suitable APP-derived substrate which is cleaved to the Abeta peptides. The amount of produced peptides can be determined with specific ELISA assays. Cell lines of neuronal origin secrete Abeta peptides which can be measured with the specific ELISA assay. Treatment with compounds which inhibit γ-secretase leads to a reduction of secreted Abeta thus providing a measure of inhibition.
The in vitro assay of γ-secretase activity uses a HEK293 membrane fraction as a source of γ-secretase and a recombinant APP substrate. Latter consist of the C-terminal 100 amino acids of human APP fused to a 6× Histidin tail for purification which is expressed in E. coli in a regulatable expression vector, e.g. pEt15. This recombinant protein corresponds to the truncated APP fragment which results after […] of the extracellular domain and which constitutes the γ-secretase substrate. […] Hek293 cells are mechanically disrupted and the microsomal fraction is isolated by differential centrifugation.

Consider `CN(C)NC(=O)c1ccc(CN([C@@H]2CC(C)(C)CCNC2=O)S(=O)(=O)c2ccc(Cl)cc2)c(F)c1` [Example 189, 4-Chloro-N-[4-(N′,N′-dimethyl-hydrazinocarbonyl)-2-fluoro-benzyl]-N-((R)-5,5-dimethyl-2-oxo-azepan-3-yl)-benzenesulfonamide], for which, under “table head prints none”, the IC50 was 20 nM.

`CC1(C)CCNC(=O)[C@H](N(Cc2ccc(-c3ccno3)cc2)S(=O)(=O)c2ccc(Cl)cc2)C1` [Example 191, 4-Chloro-N-((R)-5,5-dimethyl-2-oxo-azepan-3-yl)-N-(4-isoxazol-5-yl-benzyl)-benzenesulfonamide]: the IC50 (table head prints none) worked out at 60 nM.

Take `COc1ccc(CN([C@@H]2CC(C)(C)CCNC2=O)S(=O)(=O)c2ccc(Cl)cc2)c(F)c1` [Example 192, 4-Chloro-N-((R)-5,5-dimethyl-2-oxo-azepan-3-yl)-N-(2-fluoro-4-methoxy-benzyl)-benzenesulfonamide]: the IC50 (table head prints none) turned out to be 40 nM.

For the molecule `CC1(C)CCNC(=O)[C@H](N(Cc2ccc(CO)cc2F)S(=O)(=O)c2ccc(Cl)cc2)C1` [Example 193, 4-Chloro-N-((R)-5,5-dimethyl-2-oxo-azepan-3-yl)-N-(2-fluoro-4-hydroxymethyl-benzyl)-benzenesulfonamide], the IC50 (table head prints none) was 20 nM.

In the case of `O=C(O)CCc1ccc(CN(C2CC(C(F)(F)F)CCNC2=O)S(=O)(=O)c2ccc(Cl)cc2)cc1` (stereo not drawn) [Example 194, 3-(4-{[(4-Chloro-benzenesulfonyl)-(2-oxo-5-trifluoromethyl-azepan-3-yl)-amino]-methyl}-phenyl)-propionic acid], where the note is “table head prints none”, the IC50 was 130 nM.

As to `O=C(O)c1ccc(CN(C2CC(C(F)(F)F)CCNC2=O)S(=O)(=O)c2ccc(Cl)cc2)cc1` (stereo not drawn) [Example 195, 4-{[(4-Chloro-benzenesulfonyl)-(2-oxo-5-trifluoromethyl-azepan-3-yl)-amino]-methyl}-benzoic acid], the half-inhibitory concentration (IC50) (table head prints none) worked out at 30 nM.

In the case of `CN(C)NC(=O)c1ccc(CN(C2CC(C(F)(F)F)CCNC2=O)S(=O)(=O)c2ccc(Cl)cc2)cc1` (stereo not drawn) [Example 196, 4-Chloro-N-[4-(N′,N′-dimethyl-hydrazinocarbonyl)-benzyl]-N-(2-oxo-5-trifluoromethyl-azepan-3-yl)-benzenesulfonamide], the IC50 (table head prints none) was determined as 190 nM.

Consider `COC(=O)c1ccc(CN(C2CC(C(F)(F)F)CCNC2=O)S(=O)(=O)c2ccc(Cl)cc2)c(F)c1` (stereo not drawn) [Example 197, 4-{[(4-Chloro-benzenesulfonyl)-(2-oxo-5-trifluoromethyl-azepan-3-yl)-amino]-methyl}-3-fluoro-benzoic acid methyl ester], for which the IC50 (table head prints none) is 20 nM.

On to `COc1ccc(CN(C2CC(C(F)(F)F)CCNC2=O)S(=O)(=O)c2ccc(Cl)cc2)c(F)c1` (stereo not drawn) [Example 198, 4-Chloro-N-(2-fluoro-4-methoxy-benzyl)-N-(2-oxo-5-trifluoromethyl-azepan-3-yl)-benzenesulfonamide], for which the IC50 came to 290 nM.

Regarding `O=C(O)c1ccc(CN(C2CC(C(F)(F)F)CCNC2=O)S(=O)(=O)c2ccc(Cl)cc2)c(F)c1` (stereo not drawn) [Example 199, 4-{[(4-Chloro-benzenesulfonyl)-(2-oxo-5-trifluoromethyl-azepan-3-yl)-amino]-methyl}-3-fluoro-benzoic acid], the IC50 was 20 nM.

Take `O=C(O)CCc1ccc(CN([C@@H]2CCCCNC2=O)S(=O)(=O)c2ccc(Cl)cc2)cc1` [Example 201, 3-(4-{[(4-Chloro-benzenesulfonyl)-((R)-2-oxo-azepan-3-yl)-amino]-methyl}-phenyl)-propionic acid]: the IC50 amounted to 20 nM.

Turning to `O=C1NCCCC[C@H]1N(Cc1ccc(-c2ccno2)cc1)S(=O)(=O)c1ccc(Cl)cc1` [Example 208, 4-Chloro-N-(4-isoxazol-5-yl-benzyl)-N-((R)-2-oxo-azepan-3-yl)-benzenesulfonamide], the IC50 was 220 nM.

In the case of `COc1ccc(CN([C@@H]2CCCCNC2=O)S(=O)(=O)c2ccc(Cl)cc2)c(F)c1F` [Example 211, 4-Chloro-N-(2,3-difluoro-4-methoxy-benzyl)-N-((R)-2-oxo-azepan-3-yl)-benzenesulfonamide], the IC50 is 50 nM.

As to `CC(C)(CC(=O)O)c1ccc(CN([C@@H]2CCCCNC2=O)S(=O)(=O)c2ccc(Cl)cc2)cc1` [Example 218, 3-(4-{[(4-Chloro-benzenesulfonyl)-((R)-2-oxo-azepan-3-yl)-amino]-methyl}-phenyl)-3-methyl-butyric acid], the IC50 was determined as 210 nM.

On to `CC(C)(Cc1ccc(CN([C@@H]2CCCCNC2=O)S(=O)(=O)c2ccc(Cl)cc2)cc1)C(=O)O` [Example 219, 3-(4-{[(4-Chloro-benzenesulfonyl)-((R)-2-oxo-azepan-3-yl)-amino]-methyl}-phenyl)-2,2-dimethyl-propionic acid], for which the IC50 turned out to be 230 nM.
